Reference: US20080112954A1, “Method for treating chronic pain” (Parker College of Chiropractic, priority 2006, published 2008)

Experiments:
naïve rats = experiment: Thermal sensitivity of naïve rats after intrathecal EphB receptor activators; format: in vivo, rat; settings: prior injection of 20 μg
[1] = test system: synapses between C-fibers and DH neurons; experiment: LTP of C-fiber evoked field potentials in spinal dorsal horn in vivo; parameters: species or system rat; settings: for LTP produced by 4 high-frequency trains of nerve shock: naïve animals
Protocol: Under anesthesia, a cannula was inserted into the trachea to allow artificial ventilation and another cannula containing heparin (0.03%) saline was inserted into the left carotid artery to monitor the blood pressure. The rat was placed in a stereotaxic frame, then was paralyzed by an intravenous injection of pancuronium bromide (4 mg/kg) and artificially ventilated with air at a tidal volume of 15 ml/kg. Adequate anesthesia was confirmed intermittently during neuromuscular blockade in terms of the following two criteria: (1) the pupils were constricted; (2) the blood pressure remained stable during noxious stimulation. Core body temperature was monitored through a thermister probe inserted into the rectum and maintained at 37.5±0.5° C. by means of a feedback-controlled heating pad under the ventral surface of the abdomen. In each experiment phosphate-buffered saline (PBS) was intermittently administered via a jugular vein cannula to maintain hydroelectrolyte balance. A laminectomy was performed to expose the lumbar spinal cord. The dura mater was then removed the exposed cord was immediately covered with warm agar (2% in saline). After the agar hardened, a small hole was made above the recording site for application of drug or vehicle. At the end of each experiment, the animals were killed by an overdose of intravenous pentobarbital (200 mg/kg).
Long-term potentiation (LTP) tests were performed on naïve rats. The protocol for the electrophysiological recordings of C-fiber evoked field potentials was similar to that described previously (Liu and Sandkuhler, 1998). The recordings were made at depths of 200-500 μm from the surface of the spinal cord between L4-L5 with glass capillary microelectrodes (DC resistances 3-5 MΩ filled with 2 M NaCl). The sciatic nerve was stimulated by a bipolar platinum hook electrode. […] Examples of the C-fiber-evoked field potentials given in each figure were recorded before (a) and after (b) tetanic stimulation (indicated by the arrow therein) or ephrinB1-Fc. […]

## C[C@]12N[C@H](Cc3ccccc31)c1ccccc12 [MK-801, dizocilpine]
naïve rats
  thermal hypersensitivity induced by injection of ephrinB1-Fc or ephrinB2-Fc: prevented
[1]; post-treatment
  LTP produced by 4 high-frequency trains of nerve shock: not interrupted
[1]; pre-treatment, n=5
  LTP induced by the combination of ephrinB1-Fc and 2 tetanic trains: blocked
[1]; topical pre-treatment
  LTP produced by 4 high-frequency trains of nerve shock: blocked
